Experimental data published in the NIST ThermoML archive (doi:10.1016/j.fluid.2013.11.023).
± gives the expanded uncertainty stated by the source.

Conditions: Crystal; DTA

Normal melting temperature: 118.60 ± 4 °C
Compound: Brc1sc(Br)c(Br)c1Br [perbromothiophene]
